Experimental data published in patent publication US4894453A, “2-substituted alkoxy-3-substituted-pyrazines” (Toyo Jozo Kabushiki Kaisha, priority 1986, dated 1990).

How the values were obtained:
[1] = tested on: PAF-induced aggregation (rabbit platelet plasma); experiment: Platelet aggregation inhibitory action on PAF-induced aggregation; assay type: cell-based; conditions: Oryctolagus cuniculus, 0.05 h, PAF 10-50 μg/ml, 37° C., 3 min incubation, hydrochloride salt, read-out: inhibition ratio, PAF-induced platelet aggregation
[2] = tested on: blood flow, femoral artery / left back limb; experiment: Vasodilation activity, changes in blood flow in perfused left back limb of anesthetized dog; assay type: in vivo; conditions: 100 μg into right femoral artery; relative to increased blood flow by 30 μg papaverin intra-arterially = 100%; hydrochloride salt
Protocol: (§1) The pharmacological activity of the present compounds [1] is illustrated below. All the compounds [1] used in the pharmacological tests were tested in the form of the hydrochloride salt thereof.
2. Vasodilation activity:
A dog, pretreated with morphine (1.5 mg/kg, sc) is anesthesized with urethane (450 mg/kg, iv) and α-chloralose (45 mg/kg, iv), and immobilized in the dosal position. Right femoral arterial blood is introduced into a left femoral artery via a perfusion pump, and Sterling's resistance is connected to the exosomatic circulatory system to perfuse blood to a left back limb at constant pressure. The perfusion pressure is set at a value slightly higher than that of the average blood pressure of the animal. Sample (100 μg) dissolved in physiological saline solution is administered to a right femoral artery, and changes in blood flow are measured. Vasodilation activity is measured as a relative activity, by defining as 100% the increased rate of blood flow when 30 μg papaverin is administered intra-arterially. The results are shown in Table 5, where it will be seen that the compounds [1] of the present invention have strong vasodilation activity.

[3] = tested on: PAF-induced aggregation (rabbit platelet plasma); experiment: Platelet aggregation inhibitory action on PAF-induced aggregation; assay type: cell-based; conditions: Oryctolagus cuniculus, 0.05 h, PAF 10-50 μg/ml, 37° C., 3 min incubation, hydrochloride salt, read-out: inhibition ratio, PAF-induced platelet aggregation; remark: listed apart in the source
Protocol: as §1
(§2) 1. Platelet aggregation inhibition:
(§3) Sample solution containing a compound [1] (final concentration 500 or 100 μM) is added to rabbit platelet plasma to which was added 10% by volume of a 3.8% sodium citrate solution, and the mixture is incubated at 37° C. for 3 minutes. A platelet activation factor (PAF, final concentration 10-50 μg/ml) or collagen (final concentration 2.5 μg/ml) is added thereto as an aggregating agent, and platelet aggregation activity is measured with an aggregometer. The results of assays for PAF-induced aggregation are shown in Table 3, and those for collagen-induced aggregation are shown in Table 4, which tables show the strong platelet aggregation inhibitory activity of the compounds [1] of the present invention.

[4] = tested on: collagen-induced aggregation (rabbit platelet plasma); experiment: Platelet aggregation inhibitory action on collagen-induced aggregation; assay type: cell-based; conditions: Oryctolagus cuniculus, 0.05 h, collagen 2.5 μg/ml, 37° C., 3 min incubation, hydrochloride salt, read-out: inhibition ratio, collagen-induced platelet aggregation
Protocol: as §1, §2, §3

[5] = tested on: lipoperoxide generation in rat cerebrum; experiment: Antioxidant activity (inhibition of lipoperoxide generation, method of Stocks et al.); assay type: biochemical; conditions: 100 μM; rat cerebrum supernatant, 37° C., 15 min, thiobarbituric acid, 532 nm; hydrochloride salt
Protocol: as §1
Antioxidant activity is determined according to the method of Stocks et al. [Clin. Sci. Mol. Med., 47: 215 (1974)]. Rat cerebrum is added to ice-cooled 40 mM phosphate saline buffer solution (PBS) (pH 7.4, 4 ml buffer per 1 g cerebrum), homogenized and centrifuged (1000×g, 4° C., 10 min.) to obtain a supernatant solution. The supernatant solution is diluted fivefold with the above ice-cooled PBS solution, and to a 0.9 ml aliquot thereof is added a sample containing a compound [1] (0.1 ml, final concentration 100 μM) dissolved in ethanol. The resultant mixture is incubated at 37° C. for 15 minutes, 35% perchloric acid (0.2 ml) is added, and the mixture is ice-cooled to stop the reaction and centrifuged (1300×g, 4° C., 10 min.). 0.5 ml thiobarbituric acid (5 g/lit. of 50% acetic acid) is added to the supernatant solution (1 ml), so as to measure its absorbancy at 532 nm. The amount of lipoperoxide thus generated is expressed as an amount of malondialdehyde.

Cc1nc(C)c(OCC(=O)N2CCCCC2)nc1C [Compound 067]
inhibition at 300 µM [1]: 53%

Cc1nc(C)c(OCC(=O)N2CCOCC2)nc1C [Compound 075]
vasodilation activity [2]: 89%

Cc1nc(C)c(OCC(=O)NCCN2CCN(Cc3ccc(Cl)cc3)CC2)nc1C [Compound 135]
vasodilation activity [2]: 242%
inhibition at 500 µM ([3]; 500 μM): 77%

Cc1nc(C)c(OCC(=O)NCCN2CCN(Cc3ccccc3)CC2)nc1C [Compound 136]
vasodilation activity [2]: 204%
inhibition at 100 µM [3]: 50%

Cc1nc(C)c(OCC(=O)NCCN2CCN(Cc3ccccc3Cl)CC2)nc1C [Compound 137]
vasodilation activity [2]: 216%
inhibition at 100 µM [3]: 76%

CCc1nc(OCCN2CCCCC2)c(C(C)C)nc1CC [Compound 550]
inhibition at 100 µM [3]: 56%
inhibition at 100 µM [4]: 85%

CCc1nc(CC(C)C)c(OCCN2CCN(Cc3ccccc3)CC2)nc1CC [Compound 556]
inhibition at 100 µM [3]: 51%
inhibition at 100 µM [4]: 40%

CCCCCCCCc1nc2c(nc1OCCN1CCN(CCCC)CC1)CCCC2 [Compound 573]
inhibition ratio, lipoperoxide generation (antioxidant activity) [5]: 56%
inhibition at 100 µM [3]: 86%
inhibition at 100 µM [4]: 58%

CCCCCCCCCc1nc2c(nc1OCCN1CCN(CCCC)CC1)CCCC2 [Compound 580]
inhibition ratio, lipoperoxide generation (antioxidant activity) [5]: 77%
inhibition at 100 µM [3]: 94%
inhibition at 100 µM [4]: 80%

CCCCCCCCCCc1nc2c(nc1OCCN1CCOCC1)CCCC2 [Compound 585]
inhibition ratio, lipoperoxide generation (antioxidant activity) [5]: 62%
inhibition at 100 µM [4]: 41%

CCCCCCCCCCc1nc2c(nc1OCCN1CCN(CCCC)CC1)CCCC2 [Compound 587]
inhibition ratio, lipoperoxide generation (antioxidant activity) [5]: 65%
inhibition at 100 µM [3]: 91%
inhibition at 100 µM [4]: 79%

CCCCCCCCCCc1nc2c(nc1OCCN1CCN(CCO)CC1)CCCC2 [Compound 588]
inhibition ratio, lipoperoxide generation (antioxidant activity) [5]: 65%
inhibition at 100 µM [3]: 64%
inhibition at 100 µM [4]: 78%
